Patent publication US11639530B2, “CD133 related to anticancer agent resistance in colon cancer and use thereof” (KOREA UNIVERSITY RESEARCH AND BUSINESS FOUNDATION, priority 2019, dated 2023)

Experiments:
liver cancer cell line = experiment: Microscopic analysis of microvesicle and TNT formation (WGA-488/DAPI staining, confocal); type: cell-based
Protocol: The relationship between EGF and microvesicle and TNT formation was investigated by microscopic analysis. Specifically, after 14 hours of EGF treatment, cells were fixed with 4% paraformaldeyde and treated with WGA-488 and DAPI for 10 minutes to stain the cell membrane and nucleus. Fluorescence intensity was measured using an LSM700 Meta confocal microscope.

[1] = system: CD133 expression in a liver cancer cell line; experiment: CD133 expression (Western blotting) and CD133 ORF promoter luciferase activity after EGF treatment; type: cell-based
Protocol: After treatment with an inhibitor against an EGF downstream signaling molecule, CD133 expression was investigated. Specifically, for transfection and Western blotting, a specific gene (plasmid vector or siRNA) was expressed in cells using a transfection reagent. For general plasmid vector transfection, 24 hours after transfection, cells were harvested, and for siRNA transfection, 48 hours after transfection, cells were harvested. For Western blotting, the harvested cells were lysed in RIPA buffer, and centrifuged at 12,000 g for 20 minutes at 4° C., followed by collecting a supernatant. The collected supernatant was subjected to SDS-PAGE gel electrophoresis, and transferred onto a nitrocellulose membrane, followed by detecting the expression of a desired protein using suitable antibodies. As a result, it was observed that NF-κB is involved in EGF-induced CD133 expression (FIG. 1B). […] Cells were simultaneously transfected with the luciferase vector and a Renilla plasmid vector for quantification. Twenty-four hours after transfection, the cells were treated with EGF for 14 hours, lysed with lysis buffer and centrifuged to obtain a supernatant, and then luciferase activity was measured using the Luminometer 20/20 (FIG. 1D).

EGF: epithelial growth factor (EGF)
microvesicle and TNT formation between cells (liver cancer cell line): microvesicle and TNT formation increases between cells
CD133 expression regulation [1]: activates NF-κB and regulates CD133 expression at the transcription level
